According to the supplement of paper PMC10307832:

How the values were obtained:
Experiment in all cases: relative viability (nuclei count vs DMSO), 5 days (fraction); higher = more cells survive
[1] = tested on: ABC-1
Summary of the method: (§1)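 The day after seeding in 1536-well plates, lung cancer cell lines were treated by pin tool with a single drug, or with a fixed anchor-drug dose together with five library-drug doses (not always all listed) in √10 steps. After 5 days, a combined fix-and-stain solution (final 0.05% Triton X-100, 1% formaldehyde, 1 ug/ml Hoechst) was added. Nuclei counted on 4× images gave relative viability as treated counts over vehicle counts, reported as the median of duplicate plates.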

[2] = tested on: CAL-12T
Summary of the method: as §1

[3] = tested on: ChaGo-K-1
Summary of the method: as §1

[4] = tested on: EPLC-272H
Summary of the method: as §1

[5] = tested on: HCC-366
Summary of the method: as §1

[6] = tested on: HCC-78
Summary of the method: as §1

[7] = tested on: LC-2-ad
Summary of the method: as §1

[8] = tested on: LOU-NH91
Summary of the method: as §1

[9] = tested on: LU99A
Summary of the method: as §1

[10] = tested on: NCI-H1395
Summary of the method: as §1

[11] = tested on: NCI-H1651
Summary of the method: as §1

[12] = tested on: NCI-H1734
Summary of the method: as §1

[13] = tested on: NCI-H1755
Summary of the method: as §1

[14] = tested on: NCI-H1793
Summary of the method: as §1

[15] = tested on: NCI-H1944
Summary of the method: as §1

[16] = tested on: NCI-H2087
Summary of the method: as §1

[17] = tested on: NCI-H2170
Summary of the method: as §1

[18] = tested on: NCI-H2228
Summary of the method: as §1

[19] = tested on: NCI-H2405
Summary of the method: as §1

[20] = tested on: NCI-H3122
Summary of the method: as §1

[21] = tested on: NCI-H460
Summary of the method: as §1

[22] = tested on: PC-3 [JPC-3]
Summary of the method: as §1

[23] = tested on: RERF-LC-KJ
Summary of the method: as §1

[24] = tested on: UMC-11
Summary of the method: as §1

C[C@@H]1CN(CC(=O)Nc2ccc3c(c2)Cc2cccc(-c4cc(=O)cc(N5CCOCC5)o4)c2S3)C[C@H](C)O1 + CS(=O)(=O)N1CCN(Cc2cc3nc(-c4cccc5[nH]ncc45)nc(N4CCOCC4)c3s2)CC1 [Pictilisib] (partner 1 µM)
relative viability ([1]; first compound 0.1265 µM): 0.69
relative viability ([1]; first compound 0.4 µM): 0.636
relative viability ([1]; first compound 4 µM): 0.854
relative viability ([2]; first compound 0.04 µM): 0.396
relative viability ([2]; first compound 0.1265 µM): 0.487
relative viability ([2]; first compound 0.4 µM): 0.396
relative viability ([2]; first compound 4 µM): 0.378
relative viability ([3]; first compound 0.1265 µM): 0.633
relative viability ([3]; first compound 0.4 µM): 0.577
relative viability ([3]; first compound 4 µM): 0.686
relative viability ([4]; first compound 0.04 µM): 0.272
relative viability ([4]; first compound 0.1265 µM): 0.305
relative viability ([4]; first compound 0.4 µM): 0.3
relative viability ([4]; first compound 4 µM): 0.289
relative viability ([5]; first compound 0.04 µM): 0.151
relative viability ([5]; first compound 0.1265 µM): 0.142
relative viability ([5]; first compound 0.4 µM): 0.138
relative viability ([5]; first compound 4 µM): 0.112
relative viability ([6]; first compound 0.04 µM): 0.208
relative viability ([6]; first compound 0.1265 µM): 0.2
relative viability ([6]; first compound 0.4 µM): 0.168
relative viability ([6]; first compound 4 µM): 0.265
relative viability ([7]; first compound 0.04 µM): 1.12
relative viability ([7]; first compound 0.1265 µM): 0.43
relative viability ([7]; first compound 0.4 µM): 0.29
relative viability ([7]; first compound 4 µM): 0.537
relative viability ([8]; first compound 0.04 µM): 0.554
relative viability ([8]; first compound 0.1265 µM): 0.529
relative viability ([8]; first compound 0.4 µM): 0.505
relative viability ([8]; first compound 4 µM): 0.539
relative viability ([9]; first compound 0.04 µM): 0.313
relative viability ([9]; first compound 0.1265 µM): 0.382
relative viability ([9]; first compound 0.4 µM): 0.349
relative viability ([9]; first compound 4 µM): 0.378
relative viability ([10]; first compound 0.04 µM): 0.66
relative viability ([10]; first compound 0.1265 µM): 0.556
relative viability ([10]; first compound 0.4 µM): 0.502
relative viability ([10]; first compound 4 µM): 0.559
relative viability ([11]; first compound 0.04 µM): 0.59
relative viability ([11]; first compound 0.1265 µM): 0.491
relative viability ([11]; first compound 0.4 µM): 0.612
relative viability ([11]; first compound 4 µM): 0.568
relative viability ([12]; first compound 0.04 µM): 0.526
relative viability ([12]; first compound 0.1265 µM): 0.489
relative viability ([12]; first compound 0.4 µM): 0.468
relative viability ([12]; first compound 4 µM): 0.487
relative viability ([13]; first compound 0.04 µM): 0.381
relative viability ([13]; first compound 0.1265 µM): 0.386
relative viability ([13]; first compound 0.4 µM): 0.433
relative viability ([13]; first compound 4 µM): 0.388
relative viability ([14]; first compound 0.04 µM): 0.374
relative viability ([14]; first compound 0.1265 µM): 0.297
relative viability ([14]; first compound 0.4 µM): 0.346
relative viability ([14]; first compound 4 µM): 0.335
relative viability ([15]; first compound 0.1265 µM): 0.328
relative viability ([15]; first compound 0.4 µM): 0.336
relative viability ([15]; first compound 4 µM): 0.33
relative viability ([16]; first compound 0.04 µM): 1.05
relative viability ([16]; first compound 0.1265 µM): 0.806
relative viability ([16]; first compound 0.4 µM): 1.02
relative viability ([16]; first compound 4 µM): 0.541
relative viability ([17]; first compound 0.1265 µM): 0.343
relative viability ([17]; first compound 0.4 µM): 0.274
relative viability ([17]; first compound 4 µM): 0.339
relative viability ([18]; first compound 0.04 µM): 0.355
relative viability ([18]; first compound 0.1265 µM): 0.256
relative viability ([18]; first compound 0.4 µM): 0.372
relative viability ([18]; first compound 4 µM): 0.472
relative viability ([19]; first compound 0.04 µM): 0.414
relative viability ([19]; first compound 0.1265 µM): 0.461
relative viability ([19]; first compound 0.4 µM): 0.358
relative viability ([19]; first compound 4 µM): 0.406
relative viability ([20]; first compound 0.04 µM): 0.656
relative viability ([20]; first compound 0.1265 µM): 0.532
relative viability ([20]; first compound 0.4 µM): 0.513
relative viability ([20]; first compound 4 µM): 0.472
relative viability ([21]; first compound 0.04 µM): 0.258
relative viability ([21]; first compound 0.1265 µM): 0.404
relative viability ([21]; first compound 0.4 µM): 0.279
relative viability ([21]; first compound 4 µM): 0.346
relative viability ([22]; first compound 0.04 µM): 0.714
relative viability ([22]; first compound 0.1265 µM): 0.724
relative viability ([22]; first compound 0.4 µM): 0.801
relative viability ([22]; first compound 4 µM): 0.669
relative viability ([23]; first compound 0.04 µM): 0.591
relative viability ([23]; first compound 0.1265 µM): 0.531
relative viability ([23]; first compound 0.4 µM): 0.523
relative viability ([23]; first compound 4 µM): 0.487
relative viability ([24]; first compound 0.04 µM): 0.769
relative viability ([24]; first compound 0.1265 µM): 0.791
relative viability ([24]; first compound 0.4 µM): 0.75
relative viability ([24]; first compound 4 µM): 0.649
